The source of these data is paper PMC5218480 (PLoS ONE, 2017).

The test has as its system MV-4-11 cells. The experiment in a line: Gene expression microarray analysis (Affymetrix PrimeView) and GSEA. It counts as cell-based, human. Details: RFU PODN (11730768_x_at) / Fold change /veh PODN (11730768_x_at) / RFU LINC00158 (11744669_a_at) / Fold change /veh LINC00158 (11744669_a_at) / RFU DUSP10 (11751237_a_at) / Fold change /veh DUSP10 (11751237_a_at) / RFU ID3 (11757404_x_at) / Fold change /veh ID3 (11757404_x_at) / RFU PLEKHG5 (11737974_s_at) / Fold change /veh PLEKHG5 (11737974_s_at) / RFU LRRC4B (11730491_at) / Fold change /veh LRRC4B (11730491_at) / RFU GIMAP4 (11747438_a_at) / Fold change /veh GIMAP4 (11747438_a_at) / RFU KRT8 (11758183_x_at) / Fold change /veh KRT8 (11758183_x_at) / RFU CNN1 (11734310_a_at) / Fold change /veh CNN1 (11734310_a_at) / RFU VPS37D (11726825_at) / Fold change /veh VPS37D (11726825_at) / RFU C10orf10 (11716522_x_at) / Fold change /veh C10orf10 (11716522_x_at) / RFU KIR2DL2 /// KIR2DL4 /// KIR2DL5A /// KIR2DL5B /// KIR2DS1 /// KIR2DS2 /// KIR2DS3 /// KIR2DS4 /// KIR3DL3 /// KIR3DL3 /// KIR3DS1 (11738374_at) / Fold change /veh KIR2DL2 /// KIR2DL4 /// KIR2DL5A /// KIR2DL5B /// KIR2DS1 /// KIR2DS2 /// KIR2DS3 /// KIR2DS4 /// KIR3DL3 /// KIR3DL3 /// KIR3DS1 (11738374_at) / RFU C1QL1 (11718748_at) / Fold change /veh C1QL1 (11718748_at) / RFU TMPRSS4 (11747572_a_at) / Fold change /veh TMPRSS4 (11747572_a_at) / RFU HAMP (11756126_x_at) / Fold change /veh HAMP (11756126_x_at) / RFU RNFT2 (11725882_a_at) / Fold change /veh RNFT2 (11725882_a_at) / RFU NR4A2 (11747474_a_at) / Fold change /veh NR4A2 (11747474_a_at) / RFU ABCC12 (11746883_a_at) / Fold change /veh ABCC12 (11746883_a_at) / RFU TMEM136 (11760407_x_at) / Fold change /veh TMEM136 (11760407_x_at) / RFU CLDN22 /// WWC2 (11732394_at) / Fold change /veh CLDN22 /// WWC2 (11732394_at) / RFU HLA-DPB1 (11760878_x_at) / Fold change /veh HLA-DPB1 (11760878_x_at) / RFU SPINT1 (11716480_a_at) / Fold change /veh SPINT1 (11716480_a_at) / RFU GAP43 (11754022_s_at) / Fold change /veh GAP43 (11754022_s_at) / RFU A4GNT (11735810_at) / Fold change /veh A4GNT (11735810_at) / RFU PRB3 (11715151_x_at) / Fold change /veh PRB3 (11715151_x_at) / RFU TUBB4B (11761932_at) / Fold change /veh TUBB4B (11761932_at) / RFU CAPN14 (11732068_a_at) / Fold change /veh CAPN14 (11732068_a_at) / RFU TMCC2 (11721928_a_at) / Fold change /veh TMCC2 (11721928_a_at) / RFU IRGQ (11745062_a_at) / Fold change /veh IRGQ (11745062_a_at) / RFU FAM174B (11720279_a_at) / Fold change /veh FAM174B (11720279_a_at) / RFU TMPRSS4 (11748680_a_at) / Fold change /veh TMPRSS4 (11748680_a_at) / RFU FAM212B (11763350_a_at) / Fold change /veh FAM212B (11763350_a_at) / RFU PLEKHG5 (11743358_a_at) / Fold change /veh PLEKHG5 (11743358_a_at) / RFU ZSCAN30 (11745921_a_at) / Fold change /veh ZSCAN30 (11745921_a_at) / RFU CMKLR1 (11741424_a_at) / Fold change /veh CMKLR1 (11741424_a_at) / RFU LOC101060620 /// MAPK8IP1 (11723275_at) / Fold change /veh LOC101060620 /// MAPK8IP1 (11723275_at) / RFU SPTSSB (11747773_x_at) / Fold change /veh SPTSSB (11747773_x_at) / RFU PRSS12 (11739890_at) / Fold change /veh PRSS12 (11739890_at) / RFU BIN1 (11741810_x_at) / Fold change /veh BIN1 (11741810_x_at) / RFU WNT11 (11732464_a_at) / Fold change /veh WNT11 (11732464_a_at) / RFU C10orf10 (11716521_a_at) / Fold change /veh C10orf10 (11716521_a_at) / RFU C5orf56 (11738089_at) / Fold change /veh C5orf56 (11738089_at) / RFU CYB561 (11721691_x_at) / Fold change /veh CYB561 (11721691_x_at) / RFU ANKRD19P (11752326_a_at) / Fold change /veh ANKRD19P (11752326_a_at) / RFU OR2T12 /// OR2T33 /// OR2T8 (11738714_s_at) / Fold change /veh OR2T12 /// OR2T33 /// OR2T8 (11738714_s_at) / RFU VCAN (11748164_a_at) / Fold change /veh VCAN (11748164_a_at) / RFU JSRP1 (11732532_at) / Fold change /veh JSRP1 (11732532_at) / RFU KRTAP10-11 (11738290_x_at) / Fold change /veh KRTAP10-11 (11738290_x_at) / RFU MYO3A (11730013_a_at) / Fold change /veh MYO3A (11730013_a_at) / RFU EBF3 (11725865_a_at) / Fold change /veh EBF3 (11725865_a_at) / RFU CAMK2N1 (11719241_x_at) / Fold change /veh CAMK2N1 (11719241_x_at) / RFU C5orf56 (11738088_a_at) / Fold change /veh C5orf56 (11738088_a_at) / RFU OLFML3 (11715873_a_at) / Fold change /veh OLFML3 (11715873_a_at) / RFU LOC100653217 /// NTM (11731650_a_at) / Fold change /veh LOC100653217 /// NTM (11731650_a_at) / RFU MAPK11 (11762145_a_at) / Fold change /veh MAPK11 (11762145_a_at) / RFU FIZ1 (11724087_x_at) / Fold change /veh FIZ1 (11724087_x_at) / RFU OASL (11726364_x_at) / Fold change /veh OASL (11726364_x_at) / RFU SOX15 (11748057_x_at) / Fold change /veh SOX15 (11748057_x_at) / RFU CD79A (11719716_a_at) / Fold change /veh CD79A (11719716_a_at) / RFU HIST1H1D (11736915_at) / Fold change /veh HIST1H1D (11736915_at) / RFU CASKIN2 (11723855_a_at) / Fold change /veh CASKIN2 (11723855_a_at) / RFU LOC730098 (11760151_x_at) / Fold change /veh LOC730098 (11760151_x_at) / RFU OR4N2 (11742367_at) / Fold change /veh OR4N2 (11742367_at) / RFU PRRT2 (11749266_a_at) / Fold change /veh PRRT2 (11749266_a_at) / RFU SNX32 (11753110_a_at) / Fold change /veh SNX32 (11753110_a_at) / RFU CDHR5 (11726645_a_at) / Fold change /veh CDHR5 (11726645_a_at) / RFU RCAN1 (11760418_a_at) / Fold change /veh RCAN1 (11760418_a_at) / RFU FAM167A (11723789_a_at) / Fold change /veh FAM167A (11723789_a_at) / RFU FAM26E (11764081_at) / Fold change /veh FAM26E (11764081_at) / RFU ISYNA1 (11749810_s_at) / Fold change /veh ISYNA1 (11749810_s_at) / RFU ACY1 (11761880_at) / Fold change /veh ACY1 (11761880_at) / RFU 11764098_at / Fold change /veh 11764098_at / RFU SAMD14 (11745864_x_at) / Fold change /veh SAMD14 (11745864_x_at) / RFU NPB (11741838_a_at) / Fold change /veh NPB (11741838_a_at) / RFU TMPRSS6 (11731388_a_at) / Fold change /veh TMPRSS6 (11731388_a_at) / RFU KRTAP10-2 (11738614_at) / Fold change /veh KRTAP10-2 (11738614_at) / RFU ARHGAP8 /// PRR5-ARHGAP8 (11727945_x_at) / Fold change /veh ARHGAP8 /// PRR5-ARHGAP8 (11727945_x_at) / RFU KRTAP5-7 /// NADSYN1 (11734609_at) / Fold change /veh KRTAP5-7 /// NADSYN1 (11734609_at) / RFU RASL12 (11751679_a_at) / Fold change /veh RASL12 (11751679_a_at) / RFU CDKN2B (11736163_a_at) / Fold change /veh CDKN2B (11736163_a_at) / RFU PRF1 (11729649_at) / Fold change /veh PRF1 (11729649_at) / RFU, ZNF638 /// ZNF638-IT1 / Fold change vs veh, ZNF638 /// ZNF638-IT1 / RFU, PANK3 / Fold change vs veh, PANK3 / RFU, SH3YL1 / Fold change vs veh, SH3YL1 / RFU, ZEB2 / Fold change vs veh, ZEB2 / RFU, NRIP1 / Fold change vs veh, NRIP1 / RFU, PTTG1IP / Fold change vs veh, PTTG1IP / RFU, CAPN2 / Fold change vs veh, CAPN2 / RFU, MED14 / Fold change vs veh, MED14 / RFU, SNORA58 / Fold change vs veh, SNORA58 / RFU, C1orf63 / Fold change vs veh, C1orf63 / RFU, LRRFIP1 / Fold change vs veh, LRRFIP1 / RFU, NDUFAF7 / Fold change vs veh, NDUFAF7 / RFU, SLC12A2 / Fold change vs veh, SLC12A2 / RFU, IBTK / Fold change vs veh, IBTK / RFU, ESF1 / Fold change vs veh, ESF1 / Fold change vs veh, TMEM50B / RFU, TAOK1 / Fold change vs veh, TAOK1 / RFU, ACBD3 / Fold change vs veh, ACBD3 / RFU, TMA16 / Fold change vs veh, TMA16 / RFU, RWDD3 / Fold change vs veh, RWDD3 / RFU, BCAT1 / Fold change vs veh, BCAT1 / RFU, EDEM3 / Fold change vs veh, EDEM3 / RFU, TMEM33 / Fold change vs veh, TMEM33 / RFU, WDR75 / Fold change vs veh, WDR75 / RFU, AHCTF1 / Fold change vs veh, AHCTF1 / RFU, TFRC / Fold change vs veh, TFRC / RFU, ZDHHC17 / Fold change vs veh, ZDHHC17 / RFU, NOM1 / Fold change vs veh, NOM1 / RFU, ARL8B / Fold change vs veh, ARL8B / RFU, ZBTB11 / Fold change vs veh, ZBTB11 / RFU, TAMM41 / Fold change vs veh, TAMM41 / RFU, KIAA1704 /// LOC100996395 / Fold change vs veh, KIAA1704 /// LOC100996395 / RFU, ING1 / Fold change vs veh, ING1 / RFU, TRMT61B / Fold change vs veh, TRMT61B / RFU, FUBP3 / Fold change vs veh, FUBP3 / RFU, TP53 / Fold change vs veh, TP53 / RFU, TNKS2 / Fold change vs veh, TNKS2 / RFU, ZFP14 / Fold change vs veh, ZFP14 / RFU, ACTR2 / Fold change vs veh, ACTR2 / RFU, PPP3R1 / Fold change vs veh, PPP3R1 / RFU, PIK3R1 / Fold change vs veh, PIK3R1 / RFU, HNRNPA1 / Fold change vs veh, HNRNPA1 / RFU, RNF170 / Fold change vs veh, RNF170 / RFU, ZNF28 / Fold change vs veh, ZNF28 / RFU, RNGTT / Fold change vs veh, RNGTT / RFU, OGT / Fold change vs veh, OGT / RFU, BRD1 / Fold change vs veh, BRD1 / RFU, MARS / Fold change vs veh, MARS / RFU, ZNF655 / Fold change vs veh, ZNF655 / RFU, FAHD1 / Fold change vs veh, FAHD1 / RFU, BDP1 / Fold change vs veh, BDP1 / RFU, LRRCC1 / Fold change vs veh, LRRCC1 / RFU, ARID1A / Fold change vs veh, ARID1A / RFU, ZNF146 / Fold change vs veh, ZNF146 / RFU, ZNF330 / Fold change vs veh, ZNF330 / RFU, GPN3 / Fold change vs veh, GPN3 / RFU, C9orf123 / Fold change vs veh, C9orf123 / RFU, N4BP2L2 / Fold change vs veh, N4BP2L2 / RFU, ARFIP1 / Fold change vs veh, ARFIP1 / RFU, FAM179B / Fold change vs veh, FAM179B / RFU, BCL10 / Fold change vs veh, BCL10 / RFU, UHRF1BP1L / Fold change vs veh, UHRF1BP1L / RFU, BET1 / Fold change vs veh, BET1 / RFU, CNOT2 / Fold change vs veh, CNOT2 / RFU, ZNF268 / Fold change vs veh, ZNF268 / Fold change vs veh, ZNF507 / RFU, DGCR2 / Fold change vs veh, DGCR2 / RFU, WDSUB1 / Fold change vs veh, WDSUB1 / Fold change vs veh, HSP90B1 /// MIR3652 / RFU, ADSS / Fold change vs veh, ADSS / RFU, GK / Fold change vs veh, GK / RFU, ZNF148 / Fold change vs veh, ZNF148 / RFU, TAF9 / Fold change vs veh, TAF9 / RFU, SLC1A5 / Fold change vs veh, SLC1A5 / RFU, SLMO2 / Fold change vs veh, SLMO2 / RFU, ABCC4 / Fold change vs veh, ABCC4 / RFU, LOC101060439 /// RAP1B / Fold change vs veh, LOC101060439 /// RAP1B / RFU, RFX7 / Fold change vs veh, RFX7 / RFU, GTPBP10 / Fold change vs veh, GTPBP10 / RFU, CNEP1R1 / Fold change vs veh, CNEP1R1 / RFU, BIVM-ERCC5 /// ERCC5 / Fold change vs veh, BIVM-ERCC5 /// ERCC5 / RFU, ILF3 / Fold change vs veh, ILF3 / RFU 11762660_at / Fold change /veh 11762660_at / RFU VCAN (11757783_s_at) / Fold change /veh VCAN (11757783_s_at) / RFU DDX43 (11728927_at) / Fold change /veh DDX43 (11728927_at) / RFU KRT8 (11758188_x_at) / Fold change /veh KRT8 (11758188_x_at) / RFU NKD1 (11759106_at) / Fold change /veh NKD1 (11759106_at) / RFU SRD5A1 (11742802_a_at) / Fold change /veh SRD5A1 (11742802_a_at) / RFU TPSAB1 /// TPSB2 (11721975_s_at) / Fold change /veh TPSAB1 /// TPSB2 (11721975_s_at) / RFU GSTM3 (11746129_a_at) / Fold change /veh GSTM3 (11746129_a_at) / RFU IL23R (11737362_x_at) / Fold change /veh IL23R (11737362_x_at) / RFU TMEM51 (11727254_a_at) / Fold change /veh TMEM51 (11727254_a_at) / RFU PIWIL2 (11732686_x_at) / Fold change /veh PIWIL2 (11732686_x_at) / RFU ORM1 (11744905_x_at) / Fold change /veh ORM1 (11744905_x_at) / RFU CCDC152 (11743942_at) / Fold change /veh CCDC152 (11743942_at) / RFU ECM1 (11717891_a_at) / Fold change /veh ECM1 (11717891_a_at) / RFU IL23R (11748794_a_at) / Fold change /veh IL23R (11748794_a_at) / RFU TNFAIP8L3 (11732012_x_at) / Fold change /veh TNFAIP8L3 (11732012_x_at) / RFU MBOAT4 (11741988_at) / Fold change /veh MBOAT4 (11741988_at) / RFU 11764193_at / Fold change /veh 11764193_at / RFU TMEM53 (11763286_at) / Fold change /veh TMEM53 (11763286_at) / RFU MAGEB2 (11727129_at) / Fold change /veh MAGEB2 (11727129_at) / RFU TMEM200A (11744735_a_at) / Fold change /veh TMEM200A (11744735_a_at) / RFU CCDC152 (11751479_a_at) / Fold change /veh CCDC152 (11751479_a_at) / RFU FAM211A (11726209_a_at) / Fold change /veh FAM211A (11726209_a_at) / RFU RGS16 (11746705_a_at) / Fold change /veh RGS16 (11746705_a_at) / RFU VCAN (11755009_s_at) / Fold change /veh VCAN (11755009_s_at) / RFU RHOB (11743442_s_at) / Fold change /veh RHOB (11743442_s_at) / RFU RGS16 (11720943_a_at) / Fold change /veh RGS16 (11720943_a_at) / RFU RGS16 (11720944_at) / Fold change /veh RGS16 (11720944_at) / RFU, VPS4B / Fold change vs veh, VPS4B / RFU, CREB1 / Fold change vs veh, CREB1 / RFU, DNAJC13 / Fold change vs veh, DNAJC13 / RFU, GNAQ / Fold change vs veh, GNAQ / RFU, CDK5R1 / Fold change vs veh, CDK5R1 / RFU, ZRANB3 / Fold change vs veh, ZRANB3 / RFU, CUL4A / Fold change vs veh, CUL4A / RFU, CCNY / Fold change vs veh, CCNY / RFU, UFL1 / Fold change vs veh, UFL1 / RFU, COG3 / Fold change vs veh, COG3 / RFU, DIAPH2 / Fold change vs veh, DIAPH2 / RFU, SKA2 / Fold change vs veh, SKA2 / RFU, AFF3 / Fold change vs veh, AFF3 / RFU, LMF1 / Fold change vs veh, LMF1 / RFU, IPO11 / Fold change vs veh, IPO11 / RFU, DFFB / Fold change vs veh, DFFB / RFU, FOXP1 / Fold change vs veh, FOXP1 / RFU, CARD8 / Fold change vs veh, CARD8 / RFU, STRN3 / Fold change vs veh, STRN3 / RFU, ADK / Fold change vs veh, ADK / RFU, RASSF2 / Fold change vs veh, RASSF2 / RFU, WIPF1 / Fold change vs veh, WIPF1 / RFU, LARP1B / Fold change vs veh, LARP1B / RFU, RASA1 / Fold change vs veh, RASA1 / RFU, RB1 / Fold change vs veh, RB1 / RFU, PPFIA1 / Fold change vs veh, PPFIA1 / RFU, MAT2A / Fold change vs veh, MAT2A / RFU, CCT5 / Fold change vs veh, CCT5 / RFU, WDR92 / Fold change vs veh, WDR92 / RFU, CUX1 / Fold change vs veh, CUX1 / RFU, TTC7A / Fold change vs veh, TTC7A / RFU, TMEM135 / Fold change vs veh, TMEM135 / RFU, DEPTOR / Fold change vs veh, DEPTOR / RFU, CPM / Fold change vs veh, CPM / RFU, DNAJB6 / Fold change vs veh, DNAJB6 / RFU, CACNA2D3 / Fold change vs veh, CACNA2D3 / RFU, DTX4 / Fold change vs veh, DTX4 / RFU, TFCP2 / Fold change vs veh, TFCP2 / RFU, GMCL1 /// GMCL1P1 / Fold change vs veh, GMCL1 /// GMCL1P1 / RFU, AEBP2 / Fold change vs veh, AEBP2 / RFU, SNHG1 /// SNORD22 /// SNORD25 /// SNORD26 /// SNORD27 /// SNORD28 /// SNORD29 /// SNORD31 / Fold change vs veh, SNHG1 /// SNORD22 /// SNORD25 /// SNORD26 /// SNORD27 /// SNORD28 /// SNORD29 /// SNORD31 / Fold change (Aza/veh), C12orf56 (ProbeSet 11735607_a_at) / Fold change (ACY-1035/veh), C12orf56 (ProbeSet 11735607_a_at) / Fold change (Aza/veh), FGFR1OP (ProbeSet 11751329_s_at) / Fold change (ACY-1035/veh), FGFR1OP (ProbeSet 11751329_s_at) / Fold change (Aza/veh), VPS36 (ProbeSet 11739960_a_at) / Fold change (ACY-1035/veh), VPS36 (ProbeSet 11739960_a_at) / RFU SYPL1 (11715823_x_at) / Fold change /veh SYPL1 (11715823_x_at) / RFU IGFBP7 (11715501_s_at) / Fold change /veh IGFBP7 (11715501_s_at) / RFU REEP3 (11722064_at) / Fold change /veh REEP3 (11722064_at) / RFU IGLL1 (11728026_x_at) / Fold change /veh IGLL1 (11728026_x_at): dose or concentration left out as unconfirmed. Conditions: ProbeSet 11745789_a_at; LIST D.

For `Nc1ccc(-c2cccs2)cc1NC(=O)c1ccc2c(c1)cc(C1CC1)n2CCN1CCOCC1` [ACY-1035], the “RFU, TMEM135” value was found to be 185.11 RFU.
